In ChEMBL document CHEMBL5053556, “Design, Synthesis, and Biological Evaluation of a Novel Series of Teriflunomide Derivatives as Potent Human Dihydroorotate Dehydrogenase Inhibitors for Malignancy Treatment” (J Med Chem, 2021):
In brackets after ≈: the same amount, converted by molar mass. Blank lines part the entries; values can stand above or below the compound they belong to.

What was measured:
[1] = target: T1, Dihydroorotate dehydrogenase (quinone), mitochondrial (Homo sapiens, UniProt Q02127)
T1 sequence (Q02127 whole entry): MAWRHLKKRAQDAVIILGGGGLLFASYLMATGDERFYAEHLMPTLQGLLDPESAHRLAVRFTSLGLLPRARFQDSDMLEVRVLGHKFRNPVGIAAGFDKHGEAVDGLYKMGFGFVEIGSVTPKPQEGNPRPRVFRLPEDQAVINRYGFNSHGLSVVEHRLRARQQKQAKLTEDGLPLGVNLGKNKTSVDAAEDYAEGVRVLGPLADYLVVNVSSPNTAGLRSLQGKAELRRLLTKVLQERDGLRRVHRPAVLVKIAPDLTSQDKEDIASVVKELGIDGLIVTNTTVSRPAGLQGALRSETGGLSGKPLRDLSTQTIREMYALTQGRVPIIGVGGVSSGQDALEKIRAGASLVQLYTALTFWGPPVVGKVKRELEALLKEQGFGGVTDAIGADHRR
Description: Inhibition of human DHODH using dihydroorotate substrate preincubated for 30 mins followed by substrate addition by DCIP based microplate reader analysis

[2] = target: T1, Dihydroorotate dehydrogenase (quinone), mitochondrial; settings: dose 100.0 nM, time 30.0 min
[3] = system: Raji; assay: Antiproliferative activity against human Raji cells assessed as cell growth inhibition incubated for 96 hrs by MTT assay; assay type: functional, cell-based
[4] = system: L02; assay: cells; assay type: ADME, cell-based; settings: Homo sapiens, L02, 96 h
Description: Cytotoxicity against human L02 cells assessed as cell growth inhibition incubated for 96 hrs by MTT assay

[5] = physchem; settings: aqueous
Description: Aqueous solubility of compound by UPLC method

[6] = in vitro; settings: human, L02 cells and Raji cells
Description: Selectivity index, ratio of IC50 for human L02 cells to IC50 for human Raji cells

[7] = system: HCT-116; assay: Antiproliferative activity against human HCT-116 cells assessed as cell growth inhibition incubated for 96 hrs by MTT assay; assay type: functional, cell-based; settings: HCT-116, 96 h
[8] = system: A549; assay: Antiproliferative activity against human A549 cells assessed as cell growth inhibition incubated for 96 hrs by MTT assay; assay type: functional, cell-based; settings: A549, 96 h
[9] = system: K562; assay: Antiproliferative activity against human K562 cells assessed as cell growth inhibition incubated for 96 hrs by MTT assay; assay type: functional, cell-based; settings: K562, 96 h
[10] = system: A-375; assay: Antiproliferative activity against human A-375 cells assessed as cell growth inhibition incubated for 96 hrs by MTT assay; assay type: functional, cell-based; settings: A-375, 96 h
[11] = system: SK-MEL-28; assay: Antiproliferative activity against human SK-MEL-28 cells assessed as cell growth inhibition incubated for 96 hrs by MTT assay; assay type: functional, cell-based; settings: SK-MEL-28, 96 h
[12] = Plasma protein binding in rat at 0.1 uM incubated for 5 hrs by LC-MS analysis; assay type: ADME, cell-free; settings: read-out: PPB (converted)
[13] = Plasma protein binding in rat at 1 uM incubated for 5 hrs by LC-MS analysis; assay type: ADME, cell-free; settings: read-out: PPB (converted)
[14] = Plasma protein binding in rat at 10 uM incubated for 5 hrs by LC-MS analysis; assay type: ADME, cell-free; settings: read-out: PPB (converted)
[15] = Microsomal stability in human liver microsomes assessed as half life at 1 uM measured upto 120 mins in presence of NADPH by LC-MS analysis; assay type: ADME, Microsome
[16] = Microsomal stability in rat liver microsomes assessed as half life at 1 uM measured upto 120 mins in presence of NADPH by LC-MS analysis; assay type: ADME, Microsome
[17] = Microsomal stability in mouse liver microsomes assessed as half life at 1 uM measured upto 120 mins in presence of NADPH by LC-MS analysis; assay type: ADME, Microsome
[18] = Cmax in Sprague-Dawley rat at 15 mg/kg, po measured after 48 hrs by LC-MS analysis; assay type: ADME, organism-based; set-up: dose 15 mg/kg, time 48 hrs, route po; settings: in vivo
[19] = Tmax in Sprague-Dawley rat at 15 mg/kg, po measured after 48 hrs by LC-MS analysis; assay type: ADME, organism-based; settings: in vivo
[20] = Half life in Sprague-Dawley rat at 5 mg/kg, iv measured after 48 hrs by LC-MS analysis; assay type: ADME, organism-based; settings: in vivo
[21] = Half life in Sprague-Dawley rat at 15 mg/kg, po measured after 48 hrs by LC-MS analysis; assay type: ADME, organism-based; settings: in vivo
[22] = Clearance in Sprague-Dawley rat at 5 mg/kg, iv measured after 48 hrs by LC-MS analysis; assay type: ADME, organism-based; settings: Sprague-Dawley, in vivo
[23] = Clearance in Sprague-Dawley rat at 15 mg/kg, po measured after 48 hrs by LC-MS analysis; assay type: ADME, organism-based; settings: in vivo
[24] = AUC(0 to t) in Sprague-Dawley rat at 5 mg/kg, iv measured after 48 hrs by LC-MS analysis; assay type: ADME, organism-based; set-up: time 48 hrs, dose 5 mg/kg, route iv; settings: Sprague-Dawley, in vivo
[25] = AUC(0 to t) in Sprague-Dawley rat at 15 mg/kg, po measured after 48 hrs by LC-MS analysis; assay type: ADME, organism-based; set-up: dose 15 mg/kg, time 48 hrs, route po; settings: in vivo
[26] = Oral bioavailability in Sprague-Dawley rat at 15 mg/kg measured after 48 hrs by LC-MS analysis; assay type: ADME, organism-based; settings: in vivo
[27] = Acute toxicity in BALB/c mouse assessed effect on body weight at 400 mg/kg, po; assay type: organism-based; settings: in vivo
[28] = Acute toxicity in BALB/c mouse assessed change in behavior at 400 mg/kg, po; assay type: organism-based; settings: in vivo
[29] = Acute toxicity in BALB/c mouse assessed effect on feeding at 400 mg/kg, po; assay type: organism-based; settings: in vivo
[30] = system: THP-1; assay: Antiproliferative activity against human THP-1 cells assessed as cell growth inhibition incubated for 96 hrs by MTT assay; assay type: functional, cell-based; settings: THP-1, 96 h
[31] = system: MV4-11; assay: Antiproliferative activity against human MV4-11 cells assessed as cell growth inhibition incubated for 96 hrs by MTT assay; assay type: functional, cell-based; settings: MV4-11, 96 h
[32] = system: HL-60; assay: Antiproliferative activity against human HL-60 cells assessed as cell growth inhibition incubated for 96 hrs by MTT assay; assay type: functional, cell-based; settings: HL-60, 96 h
[33] = system: HEL; assay: Antiproliferative activity against human HEL cells assessed as cell growth inhibition incubated for 96 hrs by MTT assay; assay type: functional, cell-based
[34] = system: SUD4; assay: Antiproliferative activity against human SU-DHL-4 cells assessed as cell growth inhibition incubated for 96 hrs by MTT assay; assay type: functional, cell-based; settings: SU-DHL-4, 96 h
[35] = system: SU-DHL-6; assay: Antiproliferative activity against human SU-DHL-6 cells assessed as cell growth inhibition incubated for 96 hrs by MTT assay; assay type: functional, cell-based; settings: SU-DHL-6, 96 h
[36] = system: Daudi; assay: Antiproliferative activity against human Daudi cells assessed as cell growth inhibition incubated for 96 hrs by MTT assay; assay type: functional, cell-based
[37] = system: Raji; assay: Antitumor activity against human Raji cells xenografted in NOD-SCID mouse assessed as tumor growth inhibition at 40 mg/kg, po administered for 25 days; assay type: functional; settings: 600 h, time 25 day, read-out: TGI
[38] = system: Mus musculus; assay: Toxicity in NOD-SCID mouse xenografted with human Raji cells assessed as mortality at 40 mg/kg, po administered for 25 days; assay type: organism-based; settings: in vivo, 600 h, time 25 day
[39] = system: Mus musculus; assay: Toxicity in NOD-SCID mouse xenografted with human Raji cells assessed as change in ALT level at 40 mg/kg, po administered for 25 days; assay type: organism-based; settings: in vivo, 600 h, time 25 day
[40] = system: Mus musculus; assay: Toxicity in NOD-SCID mouse xenografted with human Raji cells assessed as change in AST level at 40 mg/kg, po administered for 25 days; assay type: organism-based; settings: in vivo, 600 h, time 25 day
[41] = system: Mus musculus; assay: Toxicity in NOD-SCID mouse xenografted with human Raji cells assessed as change in uric acid level at 40 mg/kg, po administered for 25 days; assay type: organism-based; settings: in vivo, 600 h, time 25 day
[42] = system: Mus musculus; assay: Toxicity in NOD-SCID mouse xenografted with human Raji cells assessed as change in UREAL at 40 mg/kg, po administered for 25 days; assay type: organism-based; settings: in vivo, 600 h, time 25 day
[43] = Acute toxicity in BALB/c mouse assessed as effect on liver at 400 mg/kg, po measured on day 14 by H and E staining based assay; assay type: organism-based; settings: in vivo, 336 h, time 14 day
[44] = Acute toxicity in BALB/c mouse assessed as effect on lung at 400 mg/kg, po measured on day 14 by H and E staining based assay; assay type: organism-based; settings: in vivo, 336 h, time 14 day
[45] = Acute toxicity in BALB/c mouse assessed as effect on kidney at 400 mg/kg, po measured on day 14 by H and E staining based assay; assay type: organism-based; settings: in vivo, 336 h, time 14 day
[46] = Acute toxicity in BALB/c mouse assessed as effect on heart at 400 mg/kg, po measured on day 14 by H and E staining based assay; assay type: organism-based; settings: in vivo, 336 h, time 14 day
[47] = Acute toxicity in BALB/c mouse assessed as effect on spleen at 400 mg/kg, po measured on day 14 by H and E staining based assay; assay type: organism-based; settings: in vivo, 336 h, time 14 day
[48] = in vitro; settings: human, Caco-2
Description: Apparent permeability across apical to basolateral side in human Caco-2 cells incubated for 90 mins by LC-MS analysis

[49] = in vitro; settings: human, Caco-2; remark: listed apart in the source
Description: Apparent permeability across basolateral to apical side in human Caco-2 cells incubated for 90 mins by LC-MS analysis

[50] = in vitro; settings: human, Caco-2; remark: listed apart in the source
Description: Efflux ratio of apparent permeability across basolateral to apical side over apical to basolateral side in human Caco-2 cells

[51] = system: Mus musculus; assay: Toxicity in NOD-SCID mouse xenografted with human Raji cells assessed as body weight loss at 1.5 mg/kg, po administered for 25 days; assay type: organism-based; settings: in vivo, 600 h, time 25 day
[52] = system: Raji; assay: animal or person; settings: Mus musculus, po, 600 h, read-out: TGI
Description: Antitumor activity against human Raji cells xenografted in NOD-SCID mouse assessed as tumor growth inhibition at 1.5 mg/kg, po administered for 25 days

IC50 [1]: 29.5 nM
inhibition [2]: 78.5%
Structure (SMILES): COc1cc(NC(=O)/C(C#N)=C(/C)O)c(F)cc1C(=O)Nc1c(F)cccc1Br

IC50 [1]: 36.2 nM
inhibition [2]: 70.5%
Structure (SMILES): C/C(O)=C(\C#N)C(=O)Nc1cc(OC(C)C)c(C(=O)Nc2c(F)cccc2F)cc1F

inhibition [2]: 4.9%
Structure (SMILES): C/C(O)=C(\C#N)C(=O)Nc1cc(OC(C)C)c(C(=O)Nc2ccc(F)c(Cl)c2)cc1F

IC50 [1]: 31.1 nM
inhibition [2]: 67.7%
Structure (SMILES): COc1cc(NC(=O)/C(C#N)=C(/C)O)c(F)cc1C(=O)Nc1c(F)cccc1Cl

IC50 [3]: 0.4 nM
Structure (SMILES): CCn1c(CO)nn(-c2cc(O[C@@H](C)C(F)(F)F)c(C(=O)Nc3c(F)cccc3Cl)cc2F)c1=O
IC50 [4]: 1.1 nM
Activity [51]: Toxic
inhibition in vivo at 1.5 mg/kg [52]: 79%

The next lines start with the compound.

Structure (SMILES): C/C(O)=C(\C#N)C(=O)Nc1cc(O[C@@H](C)C(F)(F)F)c(C(=O)Nc2c(F)cccc2Br)cc1F
IC50 [1]: 6.8 nM
IC50 [3]: 13.9 nM
IC50 [4]: 526 nM
inhibition [2]: 93.1%
solubility [5]: 1700 µg/mL (≈ 3.1 mM)
selectivity ratio [6]: 37.7

Structure (SMILES): C/C(O)=C(\C#N)C(=O)Nc1cc(O[C@@H](C)C(F)(F)F)c(C(=O)Nc2c(Cl)cccc2Br)cc1F
IC50 [1]: 6.2 nM
IC50 [3]: 32.2 nM
IC50 [4]: 506 nM
inhibition [2]: 94.4%
solubility [5]: 2900 µg/mL (≈ 5.14 mM)
selectivity ratio [6]: 15.8

Structure (SMILES): C/C(O)=C(\C#N)C(=O)Nc1cc(OC(C)C)c(C(=O)Nc2c(F)cccc2Cl)cc1F
IC50 [1]: 22.4 nM
IC50 [7]: 7300 nM
IC50 [8]: 900 nM
IC50 [3]: 300 nM
IC50 [9]: 2300 nM
IC50 [10]: 1100 nM
IC50 [11]: 300 nM
inhibition [2]: 70.7%
solubility [5]: 465 µg/mL (≈ 1.03 mM)

Structure (SMILES): C/C(O)=C(\C#N)C(=O)Nc1cc(OC(C)C)c(C(=O)Nc2ccccc2Br)cc1F
IC50 [1]: 41.5 nM
inhibition [2]: 68.5%

Structure (SMILES): C/C(O)=C(\C#N)C(=O)Nc1cc(O[C@@H](C)C(F)(F)F)c(C(=O)Nc2c(F)cccc2Cl)cc1F
IC50 [1]: 6.9 nM
IC50 [3]: 13.7 nM
IC50 [4]: 511 nM
fraction unbound at 5 h, 0.1 µM [12]: 0.278
fraction unbound at 5 h, 1 µM [13]: 0.057
fraction unbound at 5 h, 10 µM [14]: 0.017
half-life at 1 µM [15]: 2.31 h
half-life at 1 µM [16]: 0.77 h
half-life at 1 µM [17]: 2.46 h
Cmax [18]: 1320 ng/mL
Tmax [19]: 12 h
half-life [20]: 4.6 h
half-life [21]: 8.7 h
clearance [22]: 5 mL/min/kg
CL/F [23]: 11.7 mL/min/kg
AUC(0-t) at 48 h [24]: 21500 ng·h/mL
AUC(0-t) at 48 h [25]: 21100 ng·h/mL
bioavailability [26]: 32.8%
Activity [27]: Non-Toxic
Activity [28]: Non-Toxic
Activity [29]: Non-Toxic
IC50 [30]: 20 nM
IC50 [31]: 20 nM
IC50 [32]: 20 nM
IC50 [33]: 20 nM
IC50 [34]: 20 nM
IC50 [35]: 20 nM
IC50 [36]: 20 nM
inhibition in vivo at 40 mg/kg [37]: 73.1%
Activity [38]: Non-Toxic
Activity [39]: Non-Toxic
Activity [40]: Non-Toxic
Activity [41]: Non-Toxic
Activity [42]: Non-Toxic
Activity [43]: Non-Toxic
Activity [44]: Non-Toxic
Activity [45]: Non-Toxic
Activity [46]: Non-Toxic
Activity [47]: Non-Toxic
inhibition [2]: 93.6%
solubility [5]: 5200 µg/mL (≈ 10.3 mM)
selectivity ratio [6]: 37.2
Papp A→B at 1.5 h [48]: 0.29 ×10⁻⁶ cm/s
Papp B→A at 1.5 h [49]: 2.04 ×10⁻⁶ cm/s
efflux ratio [50]: 7

Structure (SMILES): C/C(O)=C(\C#N)C(=O)Nc1cc(OC(C)C)c(C(=O)Nc2ccccc2Cl)cc1F
IC50 [1]: 47.2 nM
inhibition [2]: 62.7%

Structure (SMILES): COc1ccccc1NC(=O)c1cc(F)c(NC(=O)/C(C#N)=C(/C)O)cc1OC(C)C
inhibition [2]: 5.3%

Structure (SMILES): CCOc1cc(NC(=O)/C(C#N)=C(/C)O)c(F)cc1C(=O)Nc1c(F)cccc1Cl
IC50 [1]: 44.1 nM
inhibition [2]: 63.8%

Structure (SMILES): C/C(O)=C(\C#N)C(=O)Nc1cc(OC(C)C)c(C(=O)Nc2ccccc2F)cc1F
inhibition [2]: 23%
